From patent US11045562B2, “Radiolabelled mGluR2/3 PET ligands” (Janssen Pharmaceutica NV, priority 2015, dated 2021)

How the values were obtained:
[1] = Ex-vivo biodistribution in Sprague-Dawley rats; conditions: for Uptake, Mean 2 min: 2 min after i.v. injection; for Uptake, Mean 2 min / Uptake, Mean 10 min / Uptake, Mean 30 min / Uptake, Mean 60 min: n=3; for Uptake, Mean 10 min: 10 min after i.v. injection; for Uptake, Mean 30 min: 30 min after i.v. injection; for Uptake, Mean 60 min: 60 min after i.v. injection
Experimental: (§1) Sprague-Dawley rats obtained from Harlan (the Netherlands), were housed in groups of four to six per cage until treatment. They were kept at a constant temperature of 21° C. and at a 12-h light/dark cycle, in which lights were switched on at 8:00 a.m. Animals had unrestricted access to food (Teklad Global 16% Protein Rodent Diet, Harlan, Madison, Wis., USA) and water. All animal experiments were performed in compliance with Belgium laws on animal experimentation and after approval by the local animal ethics committee.
The biodistribution of [^18F]-1 was determined at 2, 10, 30 and 60 min, after injection in Sprague Dawley rats (n=3 per time point. Rats were injected intravenously with 0.7-1.1 MBq via a tail vein and euthanized at the time points indicated above, under isoflurane anesthesia. All tissues were dissected, weighed and counted for radioactivity in a gamma counter.

mGluR2/3 = experiment: microPET scanning in SD rats, baseline and compound A pretreatment; format: in vivo
Experimental: Data were acquired in a 128×128×95 matrix with a pixel width of 0.475 mm and a slice thickness of 0.796 mm. During PET imaging, rats were kept under gas anesthesia (2.5% isoflurane in oxygen at a flow rate of 1 l/min), and their body temperature was maintained between 36.5 and 37° C. using a heating pad. PET data were analyzed using Pmod software version 3.2 (Pmod, Zurich Switzerland).
as §1
The peak uptake in frontal cortex during the baseline scan was observed around 15 min after tracer injection.

human mGlu3 = target: T1, human mGlu3 (Homo sapiens, UniProt Q14832); experiment: [3H]-compound A displacement binding, human mGlu3 HEK293 membranes
T1 construct: expressed in transfected cells; host or cells: HEK293
Experimental: (§2) For [^3H]-compound A (a NAM compound, selective for mGlu2/3 (˜20 fold selective for 2 over 3) vs other mGluRs) binding, membranes from human mGlu2 and mGlu3 HEK293 cells, and also rat cortical membranes, were used. After thawing, membranes were homogenized using an Ultra Turrax homogenizer and suspended in ice-cold binding buffer containing 50 mM Tris-HCl (pH 7.4), 10 mM MgCl2, 2 mM CaCl2. Displacement studies were done using 6 nM of radioligand, except for human mGlu3 membranes where 25 nM was used. Assay mixtures were incubated for 60 min at RT in a volume of 0.5 ml containing […] or 75 μg membrane protein of human mGlu2, human mGlu3 or rat cortex, respectively. Non-specific binding was estimated in the presence of […] compound B (a NAM with IC50˜10 nM against hmGlu2 and IC50˜200 nM against hmGlu3). Filtration was performed using Whatman GF/C filter sheets pre-soaked in 0.1% PEI and a Brandell harvester 96.
(§3) Filters from filters sheets were punched into vials. After the addition of scintillation liquid, radioactivity on the filters was counted in a Liquid Scintillation Analyzer from Perkin Elmer.
(§4) Radioligand competition binding data were calculated as percentage of total binding measured in the absence of test compound. […] Sigmoid inhibition curves were analyzed using non-linear regression analysis.

mGlu2-3 rat cortex = experiment: [3H]-compound A displacement binding, rat cortical membranes
Experimental: as §2, §3, §4

human mGlu2 = target: T2, human mGlu2 (Homo sapiens, UniProt Q14416); experiment: [3H]-compound A displacement binding, human mGlu2 HEK293 membranes
T2 construct: expressed in transfected cells; host or cells: HEK293
Experimental: as §2, §3, §4

T2 sequence (Q14416 19-872): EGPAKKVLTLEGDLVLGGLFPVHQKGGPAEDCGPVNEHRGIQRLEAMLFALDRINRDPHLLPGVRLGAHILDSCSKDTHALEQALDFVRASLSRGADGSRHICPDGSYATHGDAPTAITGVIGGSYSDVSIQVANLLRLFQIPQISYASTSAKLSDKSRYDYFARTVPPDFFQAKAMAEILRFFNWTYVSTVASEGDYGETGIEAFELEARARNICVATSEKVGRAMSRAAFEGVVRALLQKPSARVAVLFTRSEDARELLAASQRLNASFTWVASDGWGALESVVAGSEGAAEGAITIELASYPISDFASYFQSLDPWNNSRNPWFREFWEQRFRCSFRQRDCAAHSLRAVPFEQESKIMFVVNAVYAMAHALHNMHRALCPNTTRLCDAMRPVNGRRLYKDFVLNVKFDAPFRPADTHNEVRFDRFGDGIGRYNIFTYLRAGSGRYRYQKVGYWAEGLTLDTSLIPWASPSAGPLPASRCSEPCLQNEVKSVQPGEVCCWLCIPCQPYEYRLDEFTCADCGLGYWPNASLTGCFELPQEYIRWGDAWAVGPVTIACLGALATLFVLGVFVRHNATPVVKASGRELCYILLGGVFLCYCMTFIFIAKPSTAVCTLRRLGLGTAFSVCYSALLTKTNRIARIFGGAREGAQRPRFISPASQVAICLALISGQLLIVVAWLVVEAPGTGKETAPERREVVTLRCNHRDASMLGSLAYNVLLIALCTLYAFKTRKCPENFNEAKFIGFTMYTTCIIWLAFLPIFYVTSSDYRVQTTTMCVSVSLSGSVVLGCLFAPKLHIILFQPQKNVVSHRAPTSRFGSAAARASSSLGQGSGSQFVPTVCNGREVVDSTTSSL
T1 sequence (Q14832 23-879): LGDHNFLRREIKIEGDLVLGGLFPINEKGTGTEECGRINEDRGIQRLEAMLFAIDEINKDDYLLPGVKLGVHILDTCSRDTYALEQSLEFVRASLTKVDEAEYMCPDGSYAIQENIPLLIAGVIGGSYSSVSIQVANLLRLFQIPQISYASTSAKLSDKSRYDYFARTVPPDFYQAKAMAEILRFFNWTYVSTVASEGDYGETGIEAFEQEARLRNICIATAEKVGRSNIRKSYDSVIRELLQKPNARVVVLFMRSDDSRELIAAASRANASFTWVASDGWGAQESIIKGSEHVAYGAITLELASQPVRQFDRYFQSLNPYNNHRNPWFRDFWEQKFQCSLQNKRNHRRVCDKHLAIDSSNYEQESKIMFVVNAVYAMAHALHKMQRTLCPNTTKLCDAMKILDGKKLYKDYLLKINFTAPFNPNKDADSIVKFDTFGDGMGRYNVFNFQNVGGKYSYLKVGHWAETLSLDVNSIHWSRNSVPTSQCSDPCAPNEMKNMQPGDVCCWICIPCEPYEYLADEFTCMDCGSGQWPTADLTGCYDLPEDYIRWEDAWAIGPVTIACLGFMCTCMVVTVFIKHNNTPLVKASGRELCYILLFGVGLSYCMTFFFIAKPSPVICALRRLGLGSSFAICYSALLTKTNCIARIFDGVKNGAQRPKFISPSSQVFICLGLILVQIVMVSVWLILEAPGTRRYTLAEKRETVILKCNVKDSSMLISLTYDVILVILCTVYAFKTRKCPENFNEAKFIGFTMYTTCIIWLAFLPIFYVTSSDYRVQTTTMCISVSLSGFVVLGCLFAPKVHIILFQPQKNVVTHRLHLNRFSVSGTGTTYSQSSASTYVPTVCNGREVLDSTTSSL

C[C@H]1CN(c2ccc(C(F)(F)F)c(C[18F])c2)C(=O)c2c(NC(=O)c3cccnc3N)cnn21 [compound 1]
time of highest uptake ([1]; all brain areas except for the pons): around 10 min | Uptake, Mean 2 min ([1]; blood): 0.72 SUV | Uptake, Mean 10 min ([1]; blood): 0.50 SUV | Uptake, Mean 30 min ([1]; blood): 0.39 SUV | Uptake, Mean 60 min ([1]; blood): 0.28 SUV | Uptake, Mean 2 min ([1]; bone): 0.61 SUV | Uptake, Mean 10 min ([1]; bone): 0.52 SUV | Uptake, Mean 30 min ([1]; bone): 0.73 SUV | Uptake, Mean 60 min ([1]; bone): 0.67 SUV | Uptake, Mean 2 min ([1]; cerebellum): 3.42 SUV | Uptake, Mean 10 min ([1]; cerebellum): 3.33 SUV | Uptake, Mean 30 min ([1]; cerebellum): 1.90 SUV | Uptake, Mean 60 min ([1]; cerebellum): 0.72 SUV | Uptake, Mean 2 min ([1]; cerebrum + cerebellum): 3.19 SUV | Uptake, Mean 10 min ([1]; cerebrum + cerebellum): 3.45 SUV | Uptake, Mean 30 min ([1]; cerebrum + cerebellum): 2.28 SUV | Uptake, Mean 60 min ([1]; cerebrum + cerebellum): 0.85 SUV | Uptake, Mean 2 min ([1]; cortex): 5.42 SUV | Uptake, Mean 10 min ([1]; cortex): 5.98 SUV | Uptake, Mean 30 min ([1]; cortex): 3.87 SUV | Uptake, Mean 60 min ([1]; cortex): 1.36 SUV | brain uptake ([1]; ex-vivo biodistribution, SD rats): high | bone uptake over time ([1]; ex-vivo biodistribution, hinting for some defluorination): went slightly up over time | uptake in liver, kidneys, pancreas and heart ([1]; followed by a fast washout): high initial uptake | Uptake, Mean 2 min ([1]; heart): 4.73 SUV | Uptake, Mean 10 min ([1]; heart): 2.16 SUV | Uptake, Mean 30 min ([1]; heart): 1.49 SUV | Uptake, Mean 60 min ([1]; heart): 1.14 SUV | Uptake, Mean 2 min ([1]; hippocampus): 2.49 SUV | Uptake, Mean 10 min ([1]; hippocampus): 2.83 SUV | Uptake, Mean 30 min ([1]; hippocampus): 1.94 SUV | Uptake, Mean 60 min ([1]; hippocampus): 0.80 SUV | Uptake, Mean 2 min ([1]; kidneys): 6.59 SUV | Uptake, Mean 10 min ([1]; kidneys): 2.76 SUV | Uptake, Mean 30 min ([1]; kidneys): 2.24 SUV | Uptake, Mean 60 min ([1]; kidneys): 1.87 SUV | Uptake, Mean 2 min ([1]; liver): 8.81 SUV | Uptake, Mean 10 min ([1]; liver): 5.70 SUV | Uptake, Mean 30 min ([1]; liver): 3.90 SUV | Uptake, Mean 60 min ([1]; liver): 2.42 SUV | Uptake, Mean 2 min ([1]; lungs): 4.70 SUV | Uptake, Mean 10 min ([1]; lungs): 2.27 SUV | Uptake, Mean 30 min ([1]; lungs): 2.01 SUV | Uptake, Mean 60 min ([1]; lungs): 1.77 SUV | Uptake, Mean 2 min ([1]; muscle): 0.57 SUV | Uptake, Mean 10 min ([1]; muscle): 1.07 SUV | Uptake, Mean 30 min ([1]; muscle): 0.87 SUV | Uptake, Mean 60 min ([1]; muscle): 0.65 SUV | Uptake, Mean 2 min ([1]; pancreas): 6.47 SUV | Uptake, Mean 10 min ([1]; pancreas): 3.07 SUV | Uptake, Mean 30 min ([1]; pancreas): 2.84 SUV | Uptake, Mean 60 min ([1]; pancreas): 2.75 SUV | time of peak uptake ([1]; pons): 2 min | Uptake, Mean 2 min ([1]; pons): 2.65 SUV | Uptake, Mean 10 min ([1]; pons): 2.13 SUV | Uptake, Mean 30 min ([1]; pons): 1.29 SUV | Uptake, Mean 60 min ([1]; pons): 0.56 SUV | Uptake, Mean 2 min ([1]; rest of cerebrum): 3.24 SUV | Uptake, Mean 10 min ([1]; rest of cerebrum): 3.74 SUV | Uptake, Mean 30 min ([1]; rest of cerebrum): 2.45 SUV | Uptake, Mean 60 min ([1]; rest of cerebrum): 0.91 SUV | Uptake, Mean 2 min ([1]; spleen): 3.71 SUV | Uptake, Mean 10 min ([1]; spleen): 1.64 SUV | Uptake, Mean 30 min ([1]; spleen): 1.13 SUV | Uptake, Mean 60 min ([1]; spleen): 0.87 SUV | Uptake, Mean 2 min ([1]; striatum): 3.21 SUV | Uptake, Mean 10 min ([1]; striatum): 3.56 SUV | Uptake, Mean 30 min ([1]; striatum): 3.03 SUV | Uptake, Mean 60 min ([1]; striatum): 1.14 SUV | Uptake, Mean 2 min ([1]; whole cerebrum): 3.11 SUV | Uptake, Mean 10 min ([1]; whole cerebrum): 3.43 SUV | Uptake, Mean 30 min ([1]; whole cerebrum): 2.31 SUV | Uptake, Mean 60 min ([1]; whole cerebrum): 0.87 SUV | blood uptake ([1]; with a slow washout): low | time of peak uptake after tracer injection (mGluR2/3; frontal cortex, baseline scan): around 15 min | mGluR2/3 specificity of brain uptake (mGluR2/3; pons uptake in same range as other regions after compound A pretreatment): good mGluR2/3 specificity | Eff Curve (human mGlu3): 96 | IC50 (human mGlu3; 25 nM [3H]-compound A): 5.01 nM | Eff Curve (mGlu2-3 rat cortex): 103 | pIC50 (mGlu2-3 rat cortex; 6 nM [3H]-compound A): 8.7 | Eff Curve (human mGlu2): 85 | IC50 (human mGlu2; 6 nM [3H]-compound A): 2.88 nM
